target: T1, Androgen receptor (Rattus norvegicus, UniProt P15207); experiment: Inhibition of rat prostate cytosolic androgen receptor
T1 sequence (P15207 whole entry): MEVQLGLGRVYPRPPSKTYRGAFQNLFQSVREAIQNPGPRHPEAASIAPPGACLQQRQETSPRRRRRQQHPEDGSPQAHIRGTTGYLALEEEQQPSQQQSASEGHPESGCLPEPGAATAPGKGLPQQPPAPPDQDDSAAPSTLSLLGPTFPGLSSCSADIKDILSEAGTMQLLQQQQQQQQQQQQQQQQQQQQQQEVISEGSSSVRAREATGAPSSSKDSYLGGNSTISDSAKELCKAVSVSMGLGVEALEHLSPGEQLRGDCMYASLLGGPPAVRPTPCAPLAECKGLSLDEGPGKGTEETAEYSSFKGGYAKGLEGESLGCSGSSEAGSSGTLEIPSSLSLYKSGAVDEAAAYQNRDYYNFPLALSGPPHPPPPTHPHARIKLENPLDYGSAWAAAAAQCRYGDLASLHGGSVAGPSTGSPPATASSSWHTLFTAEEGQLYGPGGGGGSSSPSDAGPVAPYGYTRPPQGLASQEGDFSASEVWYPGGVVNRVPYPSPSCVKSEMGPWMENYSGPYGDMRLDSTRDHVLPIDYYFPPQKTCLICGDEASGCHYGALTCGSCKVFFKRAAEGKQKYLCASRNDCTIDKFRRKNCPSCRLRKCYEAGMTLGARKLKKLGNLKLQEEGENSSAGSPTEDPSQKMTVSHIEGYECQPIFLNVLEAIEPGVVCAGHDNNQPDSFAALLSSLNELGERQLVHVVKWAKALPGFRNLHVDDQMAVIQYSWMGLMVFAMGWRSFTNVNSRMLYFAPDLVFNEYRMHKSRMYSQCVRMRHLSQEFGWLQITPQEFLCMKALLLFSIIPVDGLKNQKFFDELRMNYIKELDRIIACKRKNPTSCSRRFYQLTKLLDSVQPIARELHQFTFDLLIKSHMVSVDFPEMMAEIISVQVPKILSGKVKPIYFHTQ

Row | Structure (SMILES) | Ki
1 | CN1C(=S)N(c2ccc(C#N)c(I)c2)C(=O)C1(C)C | 2.5 nM
2 | CC1(C)C(=O)N(c2ccc(C#N)c(I)c2)C(=S)N1Cc1ccccc1 | 219 nM
3 | COCCN1C(=S)N(c2ccc(C#N)c(I)c2)C(=O)C1(C)C | 37 nM
4 | CCCCN1C(=S)N(c2ccc(C#N)c(I)c2)C(=O)C1(C)C | 117 nM
5 | C=CCN1C(=O)N(c2ccc(C#N)c(I)c2)C(=O)C1(C)C | 59 nM
6 | CC1(C)C(=O)N(c2ccc(C#N)c(I)c2)C(=O)N1CCCc1ccccc1 | 639 nM
7 | CC1(C)C(=O)N(c2ccc(C#N)c(I)c2)C(=O)N1CCCCO | 2 nM
8 | CCCCN1C(=O)N(c2ccc(C#N)c(I)c2)C(=O)C1(C)C | 77 nM
